# Measurements published in patent publication US7098234B2, “Indole derivatives, process for preparation of the same and use thereof” (Ono Pharmaceutical Co., Ltd., priority 2000, dated 2006).
# Tests used:
# [1] = target: T1, mouse DP receptor (Mus musculus, UniProt P70263); assay: Receptor binding test using prostanoid DP receptor-expressing cells (3H-PGD2 binding inhibition); conditions: CHO cell membranes expressing mouse DP receptor; 3H-PGD2 2.5 nmol/L; Ki=IC50/(1+([L]*/Kd))
# T1 construct: expressed in transfected cells; host or cells: CHO cells (membrane fraction)
# T1 sequence (P70263 1-357): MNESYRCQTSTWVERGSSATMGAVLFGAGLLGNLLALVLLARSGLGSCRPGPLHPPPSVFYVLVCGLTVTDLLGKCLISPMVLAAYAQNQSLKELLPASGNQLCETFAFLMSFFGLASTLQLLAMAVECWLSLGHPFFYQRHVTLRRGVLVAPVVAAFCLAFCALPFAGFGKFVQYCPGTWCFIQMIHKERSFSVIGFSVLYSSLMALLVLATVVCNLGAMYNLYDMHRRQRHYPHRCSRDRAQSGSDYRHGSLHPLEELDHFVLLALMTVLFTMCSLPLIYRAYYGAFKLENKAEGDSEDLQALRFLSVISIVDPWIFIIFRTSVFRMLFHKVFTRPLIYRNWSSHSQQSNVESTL
# Procedure: The compound of the present invention represented by formula (I) potently binds to a DP receptor and show an antagonistic activity. For example, in a laboratory test, such effects were confirmed by the following receptor binding test using prostanoid receptor-expressing cells. • (i) Receptor binding test using prostanoid DP receptor-expressing cells
# CHO cells expressing a mouse DP receptor was prepared according to the method of Hirata et al. (Proc. Natl. Acad. Sci., 91, 11192–11196 (1994)) and used as a membrane standard.
# A reaction solution (200 μL) containing the prepared membrane standard (30–166 μg) and ^3H-PGD2 was incubated at room temperature for 20 minutes. The reaction was stopped with an ice-cold buffer (1 mL) and the binding ^3H-PGD2 was trapped in on a glass filter by immediate aspiration-filtration under a reduced pressure, and its binding radioactivity was measured using a liquid scintillation counter.
# A Kd value and a Bmax value were obtained from Scatchard plots (Ann. N.Y. Acad. Sci., 51, 660 (1949)). Non-specific binding was obtained as the binding radioactivity in the presence of unlabeled PGD2 at an excess amount (10 μmol/L). ^3H-PGD2 binding inhibition by the compound of the present invention was measured by adding ^3H-PGD2 (2.5 nmol/L) and the compound of the present invention as various concentrations. Also, the following buffers were used for the reactions. […]
# [2] = target: T1, mouse DP receptor; assay: DP antagonistic activity assay using prostanoid DP receptor-expressing cells (cAMP production by PGD2); format: cell-based; conditions: CHO cells expressing mouse DP receptor; inhibition of cAMP production by PGD2 at 100 nM
# Procedure: As shown in the above results, it is apparent that the compound of the present invention potently binds to a DP receptor. • (ii) DP antagonistic activity assay using prostanoid DP receptor-expressing cells
# CHO cells expressing a mouse DP receptor were prepared according to the method of Nishigaki et al. (FEBS lett., 364, 339–341 (1995)), inoculated onto a 24-well microplate at 10^5 cells/well, followed by culturing for 2 days, and used for the assay. Each well was washed with 500 μL of MEM (minimum essential medium), and 450 μL of assay medium (MEM containing 1 mmol/L IBMX and 0.1 or 1% BSA), followed by incubation at 37° C. for 10 minutes. Then, an assay medium (50 μL) containing PGD2 alone or PGD2 with a test compound was added thereto to start the reaction, and after the reaction at 37° C. for 10 minutes, 500 μL of ice-cold trichloroacetatic acid (TCA) (10% w/v) was added thereto to stop the reaction. The reaction solution was frozen once (−80° C.) and thawed, and cells were peeled using a scraper, followed by centrifugation at 13,000 rpm for 3 minutes. The cAMP concentration was measured with a cAMP assay kit using the resulting supernatant. […] Trichloro acetic acid (TCA) was extracted to the chloroform layer and removed, the cAMP amount in a sample was determined using the aqueous layer as the sample according to the method described in the [^125I]cAMP assay kit. […]
Ki [1] [nM],IC50 [2] [nM],SMILES
1.8,120,Cc1cc2c(CC(=O)O)cccc2n1C(=O)c1ccc(OCCc2ccccc2)cc1 [1(3)]
4.3,,"CCCCCOc1ccc(C(=O)n2c(C)cc3c(CC(=O)O)cccc32)cc1 [1(4), 1-(4-Pentyloxybenzoyl)-2-methylindole-4-acetic acid]"
